Measured values from PMC4447944 (The Journal of Biological Chemistry, 2015).

Legend:
CYP3A4 = target: T1, CYP3A4 (Homo sapiens, UniProt P08684); test: Cytochrome p450 inhibition (Eurofins-CEREP); format: in vitro ADME
T1 construct: Eurofins-CEREP

hFGFR1 = target: T2, hFGFR1 (Homo sapiens, UniProt P11362); test: KINOMEscan; format: binding
T2 construct: purchased DiscoverX

hEPHA1 = target: T3, hEPHA1 (Homo sapiens, UniProt P21709); test: KINOMEscan; format: binding
T3 construct: purchased DiscoverX

hMEK3 = target: T4, hMEK3 (Homo sapiens, UniProt P46734); test: KINOMEscan; format: binding
T4 construct: purchased DiscoverX

hERK3 = target: T5, hERK3 (Homo sapiens, UniProt Q16659); test: KINOMEscan; format: binding
T5 construct: purchased DiscoverX

hADORA3 = target: T6, hADORA3 (Homo sapiens, UniProt P0DMS8); test: β-arrestin Antagonist (Eurofins-CEREP); details: read-out: % Effect, Inhibition
T6 sequence (P0DMS8 1-318): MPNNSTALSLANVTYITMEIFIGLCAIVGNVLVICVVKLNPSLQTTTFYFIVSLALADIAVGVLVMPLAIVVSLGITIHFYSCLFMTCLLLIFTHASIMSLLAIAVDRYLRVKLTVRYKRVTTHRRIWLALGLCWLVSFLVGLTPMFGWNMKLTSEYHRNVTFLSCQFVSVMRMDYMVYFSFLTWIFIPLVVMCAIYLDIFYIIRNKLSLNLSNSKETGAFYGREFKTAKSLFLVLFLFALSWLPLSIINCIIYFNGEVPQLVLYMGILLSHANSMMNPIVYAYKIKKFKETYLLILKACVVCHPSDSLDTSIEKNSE

hSTK36 = target: T7, hSTK36 (Homo sapiens, UniProt Q9NRP7); test: KINOMEscan; format: binding
T7 construct: purchased DiscoverX (KINOMEscan platform)

hBLK = target: T8, hBLK (Homo sapiens, UniProt P51451); test: KINOMEscan; format: binding
T8 construct: purchased DiscoverX

hGRK1 = target: T9, hGRK1 (Homo sapiens, UniProt Q15835); test: KINOMEscan; format: binding
T9 construct: purchased DiscoverX
T9 sequence (Q15835 whole entry): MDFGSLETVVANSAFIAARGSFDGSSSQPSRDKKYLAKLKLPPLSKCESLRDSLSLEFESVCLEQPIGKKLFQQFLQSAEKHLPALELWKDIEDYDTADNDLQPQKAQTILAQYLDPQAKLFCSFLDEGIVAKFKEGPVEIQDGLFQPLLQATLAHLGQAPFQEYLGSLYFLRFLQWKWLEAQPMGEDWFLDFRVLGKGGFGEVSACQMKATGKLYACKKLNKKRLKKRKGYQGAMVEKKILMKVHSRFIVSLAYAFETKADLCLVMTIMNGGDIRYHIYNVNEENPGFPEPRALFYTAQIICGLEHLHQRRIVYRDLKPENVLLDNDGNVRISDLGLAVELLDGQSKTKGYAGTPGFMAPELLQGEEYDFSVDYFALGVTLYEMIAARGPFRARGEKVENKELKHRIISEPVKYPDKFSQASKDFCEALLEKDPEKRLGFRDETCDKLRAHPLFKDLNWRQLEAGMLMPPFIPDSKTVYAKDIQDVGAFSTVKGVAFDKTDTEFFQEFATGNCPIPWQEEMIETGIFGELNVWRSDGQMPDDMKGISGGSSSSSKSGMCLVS

hFGFR2 = target: T10, hFGFR2 (Homo sapiens, UniProt P21802); test: KINOMEscan; format: binding
T10 construct: purchased DiscoverX

hSTK39 = target: T11, hSTK39 (Homo sapiens, UniProt Q9UEW8); test: KINOMEscan; format: binding
T11 construct: purchased DiscoverX (KINOMEscan platform)

hDAPK3 = target: T12, hDAPK3 (Homo sapiens, UniProt O43293); test: KINOMEscan; format: binding
T12 construct: purchased DiscoverX (KINOMEscan platform)

hYES = target: T13, hYES (Homo sapiens, UniProt P07947); test: KINOMEscan; format: binding
T13 construct: purchased DiscoverX

hRSK4(Kin.Dom.2-C-term) = target: T14, hRSK4(Kin.Dom.2-C-term) (Homo sapiens, UniProt Q9UK32); test: KINOMEscan; format: binding
T14 construct: hRSK4(Kin.Dom.2-C-term); purchased DiscoverX (KINOMEscan platform)

hFLT3(ITD) = test: KINOMEscan; format: binding, human
hSRPK2 = target: T15, hSRPK2 (Homo sapiens, UniProt P78362); test: KINOMEscan; format: binding
T15 construct: purchased DiscoverX (KINOMEscan platform)

hH1 = hH1 (Homo sapiens, UniProt P35367); test: β-arrestin Antagonist (Eurofins-CEREP); details: read-out: % Effect, Inhibition
hCSF1R = target: T16, hCSF1R (Homo sapiens, UniProt P07333); test: KINOMEscan; format: binding
T16 construct: purchased DiscoverX (KINOMEscan platform)

hKIT(A829P) = target: T17, hKIT(A829P) (Homo sapiens, UniProt P10721, A829P); test: KINOMEscan; format: binding
T17 construct: purchased DiscoverX (KINOMEscan panel)

hD1 = hD1 (Homo sapiens, UniProt P21728); test: cAMP 1% DMSO Potentiation (Eurofins-CEREP); details: @ 10 μM
hERBB4 = target: T18, hERBB4 (Homo sapiens, UniProt Q15303); test: KINOMEscan; format: binding
T18 construct: purchased DiscoverX

hD2L = hD2L (Homo sapiens, UniProt P14416); test: cAMP Agonist (Eurofins-CEREP); details: @ 10 μM
hD2L, sequence (P14416 whole entry): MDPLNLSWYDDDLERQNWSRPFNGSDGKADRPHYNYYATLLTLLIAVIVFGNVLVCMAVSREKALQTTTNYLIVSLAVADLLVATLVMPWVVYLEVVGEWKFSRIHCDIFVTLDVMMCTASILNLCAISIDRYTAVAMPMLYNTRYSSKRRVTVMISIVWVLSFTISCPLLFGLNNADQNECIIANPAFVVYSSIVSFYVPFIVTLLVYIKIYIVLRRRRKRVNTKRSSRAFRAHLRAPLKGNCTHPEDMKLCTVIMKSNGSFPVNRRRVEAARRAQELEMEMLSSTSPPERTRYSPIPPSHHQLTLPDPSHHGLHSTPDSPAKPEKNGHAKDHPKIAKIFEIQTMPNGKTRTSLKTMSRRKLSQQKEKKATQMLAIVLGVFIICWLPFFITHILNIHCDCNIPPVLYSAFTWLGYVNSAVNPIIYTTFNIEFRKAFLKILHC

hKIT(L576P) = target: T19, hKIT(L576P) (Homo sapiens, UniProt P10721, L576P); test: KINOMEscan; format: binding
T19 construct: purchased DiscoverX (KINOMEscan panel)

hSTK35 = target: T20, hSTK35 (Homo sapiens, UniProt Q8TDR2); test: KINOMEscan; format: binding
T20 construct: purchased DiscoverX (KINOMEscan platform)

hFRK = target: T21, hFRK (Homo sapiens, UniProt P42685); test: KINOMEscan; format: binding
T21 construct: purchased DiscoverX
T21 sequence (P42685 whole entry): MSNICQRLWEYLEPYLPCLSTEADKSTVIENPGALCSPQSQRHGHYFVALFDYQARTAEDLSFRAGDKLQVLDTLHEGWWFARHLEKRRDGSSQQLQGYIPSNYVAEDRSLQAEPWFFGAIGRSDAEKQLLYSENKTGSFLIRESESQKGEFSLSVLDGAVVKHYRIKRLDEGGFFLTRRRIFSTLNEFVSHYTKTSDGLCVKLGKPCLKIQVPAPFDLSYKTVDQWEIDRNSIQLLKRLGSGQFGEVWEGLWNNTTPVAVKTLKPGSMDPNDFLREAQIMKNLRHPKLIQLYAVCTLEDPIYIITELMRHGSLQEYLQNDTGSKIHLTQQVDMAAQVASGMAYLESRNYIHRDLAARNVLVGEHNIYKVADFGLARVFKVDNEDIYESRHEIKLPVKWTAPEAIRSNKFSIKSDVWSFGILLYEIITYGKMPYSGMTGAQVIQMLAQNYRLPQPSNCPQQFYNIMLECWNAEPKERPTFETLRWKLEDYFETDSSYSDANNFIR

hFLT1 = target: T22, hFLT1 (Homo sapiens, UniProt P17948); test: KINOMEscan; format: binding
T22 construct: purchased DiscoverX

hTBK1 = target: T23, hTBK1 (Homo sapiens, UniProt Q9UHD2); test: KINOMEscan; format: binding
T23 construct: purchased DiscoverX

hWNK1 = target: T24, hWNK1 (Homo sapiens, UniProt Q9H4A3); test: KINOMEscan; format: binding
T24 construct: purchased DiscoverX

hFLT3-autoinhibited = target: T25, hFLT3-autoinhibited (Homo sapiens, UniProt P36888); test: KINOMEscan; format: binding
T25 construct: purchased DiscoverX

hADRβ2 = hADRβ2 (Homo sapiens, UniProt P07550); test: β-arrestin Antagonist (Eurofins-CEREP); details: read-out: % Effect, Inhibition
hCAMK2B = target: T26, hCAMK2B (Homo sapiens, UniProt Q13554); test: KINOMEscan; format: binding
T26 construct: purchased DiscoverX

hMAP4K5 = target: T27, hMAP4K5 (Homo sapiens, UniProt Q9Y4K4); test: KINOMEscan; format: binding
T27 construct: purchased DiscoverX
T27 sequence (Q9Y4K4 whole entry): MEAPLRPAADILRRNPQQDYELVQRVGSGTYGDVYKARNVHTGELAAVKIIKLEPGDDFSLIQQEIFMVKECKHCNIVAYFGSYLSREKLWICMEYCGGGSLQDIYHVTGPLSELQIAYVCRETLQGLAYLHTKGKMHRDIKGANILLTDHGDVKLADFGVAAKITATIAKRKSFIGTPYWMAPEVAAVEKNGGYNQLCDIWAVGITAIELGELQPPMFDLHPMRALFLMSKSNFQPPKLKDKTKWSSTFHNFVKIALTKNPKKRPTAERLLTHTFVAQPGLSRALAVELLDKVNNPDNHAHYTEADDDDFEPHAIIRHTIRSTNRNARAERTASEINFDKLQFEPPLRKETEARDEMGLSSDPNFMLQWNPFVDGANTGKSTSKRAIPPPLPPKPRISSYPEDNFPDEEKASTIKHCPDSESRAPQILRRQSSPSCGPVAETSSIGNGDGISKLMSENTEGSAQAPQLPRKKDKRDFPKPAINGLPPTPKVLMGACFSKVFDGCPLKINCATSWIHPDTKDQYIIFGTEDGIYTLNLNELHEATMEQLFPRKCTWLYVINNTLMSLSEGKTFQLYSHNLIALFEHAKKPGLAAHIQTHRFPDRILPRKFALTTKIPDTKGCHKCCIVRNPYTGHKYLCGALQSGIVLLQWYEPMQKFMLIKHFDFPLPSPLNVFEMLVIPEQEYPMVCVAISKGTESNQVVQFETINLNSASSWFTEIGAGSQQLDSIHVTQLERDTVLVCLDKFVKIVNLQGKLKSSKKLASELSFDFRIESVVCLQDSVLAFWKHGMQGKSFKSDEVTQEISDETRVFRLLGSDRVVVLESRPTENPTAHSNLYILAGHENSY

hTNNI3K = target: T28, hTNNI3K (Homo sapiens, UniProt Q59H18); test: KINOMEscan; format: binding
T28 construct: purchased DiscoverX

hEPHB6 = target: T29, hEPHB6 (Homo sapiens, UniProt O15197); test: KINOMEscan; format: binding
T29 construct: purchased DiscoverX

hULK3 = target: T30, hULK3 (Homo sapiens, UniProt Q6PHR2); test: KINOMEscan; format: binding
T30 construct: purchased DiscoverX

hVEGFR2 = target: T31, hVEGFR2 (Homo sapiens, UniProt P35968); test: KINOMEscan; format: binding
T31 construct: purchased DiscoverX
T31 sequence (P35968 20-1356): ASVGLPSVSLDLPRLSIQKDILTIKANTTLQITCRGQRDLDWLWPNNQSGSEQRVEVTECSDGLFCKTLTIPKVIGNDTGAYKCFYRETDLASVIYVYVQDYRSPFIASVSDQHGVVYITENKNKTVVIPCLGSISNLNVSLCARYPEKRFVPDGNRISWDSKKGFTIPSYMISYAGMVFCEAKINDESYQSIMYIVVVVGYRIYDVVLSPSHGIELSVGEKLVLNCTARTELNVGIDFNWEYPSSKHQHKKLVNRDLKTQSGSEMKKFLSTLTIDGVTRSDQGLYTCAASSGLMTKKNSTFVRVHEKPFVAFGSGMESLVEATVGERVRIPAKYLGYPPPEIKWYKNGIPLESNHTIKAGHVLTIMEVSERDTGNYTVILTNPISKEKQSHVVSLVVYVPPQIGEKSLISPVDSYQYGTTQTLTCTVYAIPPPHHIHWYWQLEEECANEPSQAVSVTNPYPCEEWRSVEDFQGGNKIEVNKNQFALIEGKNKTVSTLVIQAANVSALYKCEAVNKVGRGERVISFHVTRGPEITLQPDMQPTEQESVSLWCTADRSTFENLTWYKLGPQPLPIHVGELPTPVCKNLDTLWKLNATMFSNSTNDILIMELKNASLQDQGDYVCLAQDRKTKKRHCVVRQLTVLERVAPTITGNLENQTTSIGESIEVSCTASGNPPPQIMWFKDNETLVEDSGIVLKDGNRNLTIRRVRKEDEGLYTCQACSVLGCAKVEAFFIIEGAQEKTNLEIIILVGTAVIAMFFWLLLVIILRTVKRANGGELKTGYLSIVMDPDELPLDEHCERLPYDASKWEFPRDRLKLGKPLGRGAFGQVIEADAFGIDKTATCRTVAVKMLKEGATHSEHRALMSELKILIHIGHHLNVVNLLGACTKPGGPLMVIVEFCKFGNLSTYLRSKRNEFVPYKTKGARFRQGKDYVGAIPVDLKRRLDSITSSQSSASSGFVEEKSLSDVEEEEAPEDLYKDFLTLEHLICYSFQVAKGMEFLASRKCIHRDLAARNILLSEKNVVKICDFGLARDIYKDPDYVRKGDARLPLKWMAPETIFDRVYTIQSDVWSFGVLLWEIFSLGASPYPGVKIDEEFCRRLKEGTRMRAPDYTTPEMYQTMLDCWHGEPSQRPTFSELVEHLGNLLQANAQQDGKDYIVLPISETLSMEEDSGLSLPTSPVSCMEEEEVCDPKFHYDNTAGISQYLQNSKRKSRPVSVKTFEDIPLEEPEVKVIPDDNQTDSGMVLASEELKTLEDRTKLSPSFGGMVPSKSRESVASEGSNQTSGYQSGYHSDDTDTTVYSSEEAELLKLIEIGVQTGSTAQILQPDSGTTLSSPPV

hCAMK1G = target: T32, hCAMK1G (Homo sapiens, UniProt Q96NX5); test: KINOMEscan; format: binding
T32 construct: purchased DiscoverX

T2 sequence (P11362 22-822): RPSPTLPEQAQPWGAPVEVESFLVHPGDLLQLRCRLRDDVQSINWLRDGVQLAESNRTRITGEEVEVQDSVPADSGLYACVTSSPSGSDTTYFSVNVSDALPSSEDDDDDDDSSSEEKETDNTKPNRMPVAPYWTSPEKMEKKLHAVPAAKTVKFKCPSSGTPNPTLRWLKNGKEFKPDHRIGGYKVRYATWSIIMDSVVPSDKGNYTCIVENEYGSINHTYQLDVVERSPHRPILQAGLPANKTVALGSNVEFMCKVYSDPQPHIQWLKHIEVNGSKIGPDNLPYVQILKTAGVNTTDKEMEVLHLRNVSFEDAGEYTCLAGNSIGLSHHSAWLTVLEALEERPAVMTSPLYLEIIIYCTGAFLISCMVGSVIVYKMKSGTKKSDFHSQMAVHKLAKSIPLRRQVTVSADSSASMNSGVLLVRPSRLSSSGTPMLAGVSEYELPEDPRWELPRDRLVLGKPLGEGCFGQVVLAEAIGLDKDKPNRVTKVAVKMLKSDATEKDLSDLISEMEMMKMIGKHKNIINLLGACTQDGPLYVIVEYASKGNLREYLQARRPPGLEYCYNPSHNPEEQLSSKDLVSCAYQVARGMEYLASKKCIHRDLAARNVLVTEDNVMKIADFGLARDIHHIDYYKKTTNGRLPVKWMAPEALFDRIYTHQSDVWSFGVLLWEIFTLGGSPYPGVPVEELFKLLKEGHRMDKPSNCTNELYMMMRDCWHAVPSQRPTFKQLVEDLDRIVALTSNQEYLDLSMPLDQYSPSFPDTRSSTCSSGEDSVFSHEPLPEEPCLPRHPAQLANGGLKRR
T1 sequence (P08684 whole entry, species assumed): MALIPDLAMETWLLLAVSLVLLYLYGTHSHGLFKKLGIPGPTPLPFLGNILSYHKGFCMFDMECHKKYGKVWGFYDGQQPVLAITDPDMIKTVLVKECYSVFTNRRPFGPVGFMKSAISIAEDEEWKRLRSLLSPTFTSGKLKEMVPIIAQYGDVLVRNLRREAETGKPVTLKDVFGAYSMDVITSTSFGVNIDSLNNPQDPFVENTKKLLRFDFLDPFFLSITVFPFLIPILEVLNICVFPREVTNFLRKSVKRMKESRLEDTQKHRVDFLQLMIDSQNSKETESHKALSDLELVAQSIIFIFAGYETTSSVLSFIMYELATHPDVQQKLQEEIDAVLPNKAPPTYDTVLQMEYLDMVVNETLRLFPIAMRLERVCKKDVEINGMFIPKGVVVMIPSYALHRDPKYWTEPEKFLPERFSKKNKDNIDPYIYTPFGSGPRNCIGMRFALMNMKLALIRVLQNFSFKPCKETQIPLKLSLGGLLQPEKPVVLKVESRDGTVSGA

Cc1cn(CCN2CCN(c3ccccc3-c3cc(C#N)cc(C(=O)NCCCN4CCCC4)c3)CC2)c2ccccc12 [LLY-507, 3-cyano-5-{2-[4-[2-(3-methylindol-1-yl)ethyl]piperazin-1-yl]-phenyl}-N-[(3-pyrrolidin-1-yl)propyl]benzamide]
> 20 µM: IC50 (hFGFR1) | IC50 (hEPHA1) | IC50 (hMEK3) | IC50 (hERK3) | IC50 (hSTK36) | IC50 (hBLK) | IC50 (hGRK1) | IC50 (hFGFR2) | IC50 (hSTK39) | IC50 (hDAPK3) | IC50 (hYES) | IC50 (hRSK4(Kin.Dom.2-C-term)) | IC50 (hFLT3(ITD)) | IC50 (hSRPK2) | IC50 (hCSF1R) | IC50 (hKIT(A829P)) | IC50 (hERBB4) | IC50 (hKIT(L576P)) | IC50 (hSTK35) | IC50 (hFRK) | IC50 (hFLT1) | IC50 (hTBK1) | IC50 (hWNK1) | IC50 (hFLT3-autoinhibited) | IC50 (hCAMK2B) | IC50 (hMAP4K5) | IC50 (hTNNI3K) | IC50 (hEPHB6) | IC50 (hULK3) | IC50 (hVEGFR2) | IC50 (hCAMK1G)
-38.3%: inhibition at 10 µM (hADORA3)
-19.4%: % Effect, Potentiation (hD1)
-15.6%: inhibition at 10 µM (hADRβ2)
10.1%: % Effect, Stimulation (hD2L)
69.1%: % inhibition @ 10 μM (CYP3A4)
30.1%: inhibition at 10 µM (hH1)
